Target: Serotonin 5HT7 receptors (Homo sapiens (Human), UniProt P34969)
Assay: Radiolabel Binding Studies for Serotonin 5HT7 receptors
Conditions: for IC50: membranes of cells expressing recombinant 5HT7 receptors; for inhibition at 10 µM: read-out: 5-HT7 % inhib @ 10 uM
Protocol: Radiolabel Binding Studies for Serotonin 5HT7 receptors, method 1:
Eleven dilutions (5× assay concentration) of the compound of the disclosure and chlorpromazine are prepared in the Assay Buffer by serial dilution to yield final corresponding assay concentrations ranging from 10 pM to 10 μM.
(§1) A stock concentration of 5 nM [^3H]LSD (lysergic acid diethyl amide) is prepared in 50 mM Tris-HCl, 10 mM MgCl2, 1 mM EDTA, pH 7.4 (Assay Buffer). Aliquots (50 μl) of radioligand are dispensed into the wells of a 96-well plate containing 100 μl of Assay Buffer. Duplicate 50-μl aliquots of the compound of the disclosure test and chlorpromazine positive control reference compound serial dilutions are added.
Membrane fractions of cells expressing recombinant 5HT7 receptors (50 μL) are dispensed into each well. The membranes are prepared from stably transfected cell lines expressing 5HT7 receptors cultured on 10-cm plates by harvesting PBS-rinsed monolayers, resuspending and lysing in chilled, hypotonic 50 mM Tris-HCl, pH 7.4, centrifuging at 20,000×g, decanting the supernatant and storing at −80° C.; the membrane preparations are resuspended in 3 ml of chilled Assay Buffer and homogenized by several passages through a 26 gauge needle before using in the assay.
The 250-μl reactions are incubated at room temperature for 1.5 hours, then harvested by rapid filtration onto 0.3% polyethyleneimine-treated, 96-well filter mats using a 96-well Filtermate harvester. Four rapid 500-μl washes are performed with chilled Assay Buffer to reduce non-specific binding. The filter mats are dried, then scintillant is added to the filters and the radioactivity retained on the filters is counted in a Microbeta scintillation counter.
Raw data (dpm) representing total radioligand binding (i.e., specific+non-specific binding) are plotted as a function of the logarithm of the molar concentration of the competitor (i.e., test or reference compound).
Radiolabel Binding Studies for Serotonin 5-HT7 receptors, method 2:
as §1, with “[^3H]-5-Hydroxytryptamine ([^3H]-5HT)” for “[^3H]LSD (lysergic acid diethyl amide)”

| SMILES | IC50 [nM] | inhibition at 10 µM [%] | 5-HT7 % inhib @ 10 uM (single concentration of 10 uM, percent inhibition of radioligand binding) [%] |
| --- | --- | --- | --- |
| O=C1OC(CCN2CCN(c3ccc(Cl)cn3)CC2)CC12CCCCC2 (centres unmarked) [Entry 160145] | 33 |  | 96.7 |
| Nc1cc(N2CCN(CCC3CC4(CCCCC4)C(=O)O3)CC2)ccc1[N+](=O)[O-] (centres unmarked) [Entry 160149] | 500 | 84.7 |  |
| COc1ccccc1N1CCN(CCC2CC3(CCC3)C(=O)O2)CC1 (centres unmarked) [Entry 230015] | 319 | 83.4 |  |
| O=C1OC(CCN2CCN(c3ccc4[nH]c(=O)[nH]c4c3)CC2)CC12CCC2 (centres unmarked) [Entry 160152] | 2250 | 59.5 |  |
| O=C1OC(CCN2CCN(c3cc(Cl)ccn3)CC2)CC12CCCC2 (centres unmarked) [Entry 230010] |  | 33.5 |  |
| O=C1OC(CCN2CCN(c3ccc4[nH]ccc4c3)CC2)CC12CCC2 (centres unmarked) [Entry 160148] | 88 | 96.5 |  |
| O=C1OC(CCN2CCN(c3ccc4[nH]ccc4c3)CC2)CC12CCCC2 (centres unmarked) [Entry 160147] |  | 9 |  |
| N#Cc1ccnc(N2CCN(CCC3CC4(CCCC4)C(=O)O3)CC2)c1 (centres unmarked) [Entry 230012] | 436 | 76.6 |  |
| O=C1OC(CCN2CCN(c3ccccc3O)CC2)CC12CCCC2 (centres unmarked) [Entry 230014] | 78 | 91.5 |  |
| O=C1OC(CCN2CCN(c3ccc4[nH]c(=O)[nH]c4c3)CC2)CC12CCCC2 (centres unmarked) [Entry 160151] |  | 35.9 |  |
| O=C1OC(CCN2CCN(c3ccccc3O)CC2)CC12CCC2 (centres unmarked) [Entry 230016] | 299 | 84.7 |  |
| O=C1OC(CCN2CCN(c3ccnc(Cl)c3)CC2)CC12CCCC2 (centres unmarked) [Entry 230011] |  | 40.3 |  |
| CS(=O)(=O)Nc1ccc(N2CCN(CCC3CC4(CCCC4)C(=O)O3)CC2)cc1 (centres unmarked) [Entry 230008] |  | 33.2 |  |
| O=C1OC(CCN2CCN(c3ccc4[nH]c(=O)[nH]c4c3)CC2)CC12CCCCC2 (centres unmarked) [Entry 160150] | 1230 | 76.9 |  |
| O=C1OC(CCN2CCN(c3ccc4[nH]ccc4c3)CC2)CC12CCCCC2 (centres unmarked) [Entry 160146] | 65.3 | 97.9 |  |
| O=C1OC(CCN2CCN(c3ccnc(Cl)c3)CC2)CC12CCCCC2 (centres unmarked) [Entry 160153] | 4360 | 58.2 |  |
| COc1ccccc1N1CCN(CCC2CC3(CCCC3)C(=O)O2)CC1 (centres unmarked) [Entry 230013] | 146 | 90.9 |  |
| COc1ccc(N2CCN(CC[C@@H]3CC(C)(C)C(=O)O3)CC2)cc1 [Entry 230039] | 10000 | 42.6 |  |

More lines, main results first:

| IC50 [nM] | inhibition at 10 µM [%] | SMILES | 5-HT7 % inhib @ 10 uM (single concentration of 10 uM, percent inhibition of radioligand binding) [%] |
| --- | --- | --- | --- |
| 10000 | 53.5 | COc1ccc(N2CCN(CC[C@H]3CC(C)(C)C(=O)O3)CC2)cc1 [Entry 230046] |  |
| 12 | 98.6 | CCC1(CC)CC(CCCN2CCN(c3ccccc3C(C)C)CC2)OC1=O (centres unmarked) [Entry 230062] |  |
| 55 | 98.5 | CCC1(CC)CC(CCCN2CCN(c3ccccc3)CC2)OC1=O (centres unmarked) [Entry 230057] |  |
| 965 | 78.6 | CCC1(CC)CC(CCCN2CCN(c3ccc(C#N)cc3)CC2)OC1=O (centres unmarked) [Entry 230058] |  |
| 93 | 98.9 | CCC1(CC)CC(CCCN2CCN(c3ccccn3)CC2)OC1=O (centres unmarked) [Entry 230063] |  |
| 9.9 | 99.3 | CCC1(CC)CC(CCN2CCc3ccc(F)cc3C2)OC1=O (centres unmarked) [Entry 230071] |  |
| 353 | 88.8 | CCC1(CC)CC(CCCN2CCN(c3ccc(O)cc3)CC2)OC1=O (centres unmarked) [Entry 230059] |  |
| 5820 | 51 | CCC1(CC)C[C@H](CCN2CCN(c3ccncc3)CC2)OC1=O [Entry 230083] |  |
| 7.5 | 100 | CCC1(CC)CC(CCN2CCc3ccc(Cl)cc3C2)OC1=O (centres unmarked) [Entry 230070] |  |
| 10000 | 44 | CCC1(CC)CC(CCN2CCN(c3ccc4nc(C(F)(F)F)[nH]c4c3)CC2)OC1=O (centres unmarked) [Entry 230068] |  |
| 168 | 94.9 | CCC1(CC)CC(CCCN2CCN(c3ccc(C)cc3)CC2)OC1=O (centres unmarked) [Entry 230061] |  |
| 10000 | 43.6 | CCC1(CC)CC(CCCN2CCN(c3ccc(OC)cc3)CC2)OC1=O (centres unmarked) [Entry 230060] |  |
| 10000 |  | CCC1(CC)CC(CCN2CCN(c3ccc4nc(C)[nH]c4c3)CC2)OC1=O (centres unmarked) [Entry 230069] |  |
